Results taken from the supplement of paper PMC11061612.

Tests used:
Test in all cases: Bliss excess, mean over the matrix (fraction); higher = more synergy
[1] = tested on: 647-V (Bladder Carcinoma)
In short: (§1)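 Bliss excess equals the observed combination effect minus the expected value EA + EB − EA·EB, where EA and EB are the effects of each agent alone. Combination Emax is the second-highest inhibition within the matrix. Inhibition was scaled from CellTiter-Glo 2.0 luminescence, with 0 set by vehicle wells and 1 by blank wells, after 72 hours of two-drug dosing of cells plated in 1536-well plates.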

A172 (Glioblastoma) = tested on: A172 (Glioblastoma)
In short: as §1

[2] = tested on: BICR78 (Oral Cavity Carcinoma)
In short: as §1

CS1 (Chondrosarcoma) = tested on: CS1 (Chondrosarcoma)
In short: as §1

[3] = tested on: EFM-192A (Breast Carcinoma)
In short: as §1

[4] = tested on: EKVX (Non-Small Cell Lung Carcinoma)
In short: as §1

H4 (Low Grade Glioma) = tested on: H4 (Low Grade Glioma)
In short: as §1

[5] = tested on: HCC-827 (Lung Adenocarcinoma)
In short: as §1

[6] = tested on: HCT-116 (Colorectal Carcinoma)
In short: as §1

[7] = tested on: HOP-92 (Non-Small Cell Lung Carcinoma)
In short: as §1

[8] = tested on: JHH-6 (Hepatocellular Carcinoma)
In short: as §1

[9] = tested on: MEG-01 (Chronic Myelogenous Leukemia)
In short: as §1

MSTO-211H (Mesothelioma) = tested on: MSTO-211H (Mesothelioma)
In short: as §1

[10] = tested on: P31-FUJ (Acute Myeloid Leukemia)
In short: as §1

[11] = tested on: SK-UT-1 (Other Solid Carcinomas)
In short: as §1

[12] = tested on: SLVL (B-Cell Non-Hodgkin's Lymphoma)
In short: as §1

[13] = tested on: SNG-M (Endometrial Carcinoma)
In short: as §1

[14] = tested on: SNU-61 (Colorectal Carcinoma)
In short: as §1

[15] = tested on: TYK-nu (Ovarian Carcinoma)
In short: as §1

[16] = tested on: WSU-DLCL2 (B-Cell Non-Hodgkin's Lymphoma)
In short: as §1

| SMILES | Bliss excess [1] | Bliss excess (A172 (Glioblastoma)) | Bliss excess [2] | Bliss excess (CS1 (Chondrosarcoma)) | Bliss excess [3] | Bliss excess [4] | Bliss excess (H4 (Low Grade Glioma)) | Bliss excess [5] | Bliss excess [6] | Bliss excess [7] | Bliss excess [8] | Bliss excess [9] | Bliss excess (MSTO-211H (Mesothelioma)) | Bliss excess [10] | Bliss excess [11] | Bliss excess [12] | Bliss excess [13] | Bliss excess [14] | Bliss excess [15] | Bliss excess [16] |
| --- | --- | --- | --- | --- | --- | --- | --- | --- | --- | --- | --- | --- | --- | --- | --- | --- | --- | --- | --- | --- |
| CN(C)CCCOc1ccc(-c2ccc3ncc4c(c3c2)n(C2CCOCC2)c(=O)n4C)cn1 [AZD0156] + C=CCn1c(=O)c2cnc(Nc3ccc(N4CCN(C)CC4)cc3)nc2n1-c1cccc(C(C)(C)O)n1 [AZD1775] (first compound max 1 µM, partner max 1 µM) | 0.0001 | -0.0431 | -0.0107 | -0.0392 | -0.0567 | -0.0358 | -0.0516 | 0.0075 | -0.0016 | -0.0522 | -0.0798 | 0.0032 | 0.0099 | 0.0046 | -0.0346 | -0.0203 | -0.0562 | -0.0277 | -0.0836 | -0.0119 |
| CN(C)CCCOc1ccc(-c2ccc3ncc4c(c3c2)n(C2CCOCC2)c(=O)n4C)cn1 [AZD0156] + CCN(CCO)CCCOc1ccc2c(Nc3cc(CC(=O)Nc4cccc(F)c4)[nH]n3)ncnc2c1 [AZD2811] (first compound max 1 µM, 7x7, partner max 1 µM) | 0.0365 | 0.0239 | -0.047 | -0.0074 | -0.0243 | -0.0473 | -0.0077 | -0.0088 | 0.0233 | 0.0242 | -0.0083 | -0.0347 | -0.0098 | -0.0314 | 0.0253 | -0.0768 | -0.0218 | -0.0339 | -0.0179 | 0.0362 |
| CN(C)CCCOc1ccc(-c2ccc3ncc4c(c3c2)n(C2CCOCC2)c(=O)n4C)cn1 [AZD0156] + C[C@@H]1COCCN1C2=NC(=NC(=C2)C3(CC3)[S@](=N)(=O)C)C4=C5C=CNC5=NC=C4 [AZD6738] (first compound max 1 µM, 7x7, partner max 10 µM) | 0.0039 | 0.024 | 0.0119 | 0.0088 | 0.0073 | -0.0388 | -0.0404 | -0.003 | -0.0047 | -0.0145 | -0.01 | 0.0001 | 0.0418 | -0.0462 | 0.0126 | -0.0134 | 0.0138 | -0.0047 | -0.0143 | 0.0712 |
| C=CCn1c(=O)c2cnc(Nc3ccc(N4CCN(C)CC4)cc3)nc2n1-c1cccc(C(C)(C)O)n1 [AZD1775] + C[C@@H]1COCCN1C2=NC(=NC(=C2)C3(CC3)[S@](=N)(=O)C)C4=C5C=CNC5=NC=C4 [AZD6738] (first compound max 1 µM, partner max 10 µM) | 0.0662 | 0.0433 |  | 0.0087 | -0.0053 | -0.0087 | -0.0949 | -0.0286 | 0.0252 | -0.0231 | -0.0073 | -0.0005 | 0.0418 | -0.008 | 0.0498 | -0.0105 | -0.0128 | -0.051 | -0.0711 | 0.0763 |
| C=CCn1c(=O)c2cnc(Nc3ccc(N4CCN(C)CC4)cc3)nc2n1-c1cccc(C(C)(C)O)n1 [AZD1775] + O=C(c1cc(Cc2n[nH]c(=O)c3ccccc23)ccc1F)N1CCN(C(=O)C2CC2)CC1 [Olaparib] (first compound max 1 µM, partner max 10 µM) | 0.0046 | -0.0226 | 0.0107 | 0.0057 | -0.0307 | -0.0564 | -0.12 | -0.042 | -0.0239 | -0.0181 | 0.02 | -0.0188 | -0.0203 | -0.0809 | -0.0148 | -0.0005 | -0.0105 | -0.0289 | -0.108 | -0.0184 |
| CCN(CCO)CCCOc1ccc2c(Nc3cc(CC(=O)Nc4cccc(F)c4)[nH]n3)ncnc2c1 [AZD2811] + C=CCn1c(=O)c2cnc(Nc3ccc(N4CCN(C)CC4)cc3)nc2n1-c1cccc(C(C)(C)O)n1 [AZD1775] (first compound max 1 µM, partner max 1 µM) | 0.0491 | -0.0033 | 0.0338 | 0.0264 | -0.0883 | -0.0599 | -0.0637 | 0.0272 | 0.0524 | -0.0161 | 0.0092 | -0.0323 | 0.0387 | -0.0615 | 0.108 | -0.04 | -0.0356 | 0.0108 | -0.0586 | 0.013 |
| CCN(CCO)CCCOc1ccc2c(Nc3cc(CC(=O)Nc4cccc(F)c4)[nH]n3)ncnc2c1 [AZD2811] + C[C@@H]1COCCN1C2=NC(=NC(=C2)C3(CC3)[S@](=N)(=O)C)C4=C5C=CNC5=NC=C4 [AZD6738] (first compound max 1 µM, 7x7, partner max 10 µM) | 0.0177 | -0.0252 | -0.0215 | -0.0842 | -0.0201 | -0.0558 | -0.0536 | -0.0856 | -0.0825 | 0.0305 | -0.0342 | -0.0203 | -0.0279 | -0.0332 | 0.0317 | -0.0451 | -0.0273 | -0.0434 | -0.0244 | -0.0431 |
| CCN(CCO)CCCOc1ccc2c(Nc3cc(CC(=O)Nc4cccc(F)c4)[nH]n3)ncnc2c1 [AZD2811] + O=C(c1cc(Cc2n[nH]c(=O)c3ccccc23)ccc1F)N1CCN(C(=O)C2CC2)CC1 [Olaparib] (first compound max 1 µM, 7x7, partner max 10 µM) | 0.0433 | 0.044 | -0.0114 | -0.0515 | 0.0138 | -0.0303 | -0.0046 | -0.0162 | -0.0109 | -0.0048 | -0.0127 | -0.0628 | 0.0178 | -0.0895 | 0.0453 | -0.001 | -0.018 | -0.0184 | -0.0152 | 0.0463 |
| CN(CCO)CC[C@H](CSc1ccccc1)Nc1ccc(S(=O)(=O)NC(=O)c2ccc(N3CCC([C@@H](O)c4ccccc4-c4ccc(Cl)cc4)CC3)cc2)cc1S(=O)(=O)C(F)(F)F [AZD4320] + C1CN(CCC1(C(=O)N[C@@H](CCO)C2=CC=C(C=C2)Cl)N)C3=NC=NC4=C3C=CN4 [Capivasertib] (first compound max 1 µM, 7x7, partner max 3 µM) | 0.0056 | -0.0588 | -0.0097 | -0.022 | -0.0269 | -0.0309 | -0.0397 | -0.0644 | -0.0366 | -0.038 | -0.0437 | -0.0223 | -0.0162 | 0.0452 | -0.0006 | 0.0563 | -0.054 | -0.038 | -0.038 | 0.0691 |
| CN(CCO)CC[C@H](CSc1ccccc1)Nc1ccc(S(=O)(=O)NC(=O)c2ccc(N3CCC([C@@H](O)c4ccccc4-c4ccc(Cl)cc4)CC3)cc2)cc1S(=O)(=O)C(F)(F)F [AZD4320] + C=CCn1c(=O)c2cnc(Nc3ccc(N4CCN(C)CC4)cc3)nc2n1-c1cccc(C(C)(C)O)n1 [AZD1775] (first compound max 1 µM, partner max 1 µM) | 0.0479 | -0.0101 | 0.0149 | -0.0017 | 0.0171 | -0.0382 | 0.0551 | -0.0164 | -0.0294 | 0.101 | -0.0095 | 0.0516 | 0.0585 | 0.113 | 0.0431 | 0.0422 | 0.104 | -0.0175 | -0.0845 | -0.009 |
| CN(CCO)CC[C@H](CSc1ccccc1)Nc1ccc(S(=O)(=O)NC(=O)c2ccc(N3CCC([C@@H](O)c4ccccc4-c4ccc(Cl)cc4)CC3)cc2)cc1S(=O)(=O)C(F)(F)F [AZD4320] + CCN(CCO)CCCOc1ccc2c(Nc3cc(CC(=O)Nc4cccc(F)c4)[nH]n3)ncnc2c1 [AZD2811] (first compound max 1 µM, 7x7, partner max 1 µM) | 0.114 | 0.0322 | -0.0008 | 0.0355 |  | -0.0476 | 0.0036 | -0.0596 | 0.108 | 0.0573 | 0.0044 | -0.0205 | 0.0471 | -0.0531 | 0.0705 | 0.135 | 0.0407 | -0.0262 | -0.0086 | 0.201 |
| CN(CCO)CC[C@H](CSc1ccccc1)Nc1ccc(S(=O)(=O)NC(=O)c2ccc(N3CCC([C@@H](O)c4ccccc4-c4ccc(Cl)cc4)CC3)cc2)cc1S(=O)(=O)C(F)(F)F [AZD4320] + CN(C)CCCOc1ccc(-c2ccc3ncc4c(c3c2)n(C2CCOCC2)c(=O)n4C)cn1 [AZD0156] (first compound max 1 µM, 7x7, partner max 1 µM) | 0.0212 | -0.0152 | -0.0268 | -0.0477 | -0.0468 | -0.0392 | -0.0334 | -0.0351 | -0.0518 | -0.0014 | -0.0367 | -0.0262 | 0.0078 | 0.0814 | -0.0284 | -0.0117 | -0.0467 | -0.0248 | -0.1 | 0.0117 |
| CN(CCO)CC[C@H](CSc1ccccc1)Nc1ccc(S(=O)(=O)NC(=O)c2ccc(N3CCC([C@@H](O)c4ccccc4-c4ccc(Cl)cc4)CC3)cc2)cc1S(=O)(=O)C(F)(F)F [AZD4320] + C[C@@H]1COCCN1C2=NC(=NC(=C2)C3(CC3)[S@](=N)(=O)C)C4=C5C=CNC5=NC=C4 [AZD6738] (first compound max 1 µM, 7x7, partner max 10 µM) | -0.0222 | -0.0748 | 0.0039 | -0.0499 | -0.0226 | -0.0458 | -0.0249 | 0.0192 | -0.0143 | 0.0076 | -0.023 | -0.0267 | 0.0002 | -0.0083 | 0.0253 | 0.0156 | -0.0426 | -0.0406 | -0.0115 | 0.0329 |
| Cc1c2c(nn1C)CSCc1cc(n(C)n1)CSc1cc(c3ccccc3c1)OCCCc1c(C(=O)O)n(C)c3c-2c(Cl)ccc13 [AZD5991] + C[C@@H]1COCCN1C2=NC(=NC(=C2)C3(CC3)[S@](=N)(=O)C)C4=C5C=CNC5=NC=C4 [AZD6738] (first compound max 1 µM, 7x7, partner max 10 µM) | 0.0802 | -0.0012 | -0.0327 | 0.0029 | 0.0335 | 0.0337 | 0.0274 |  | 0.0475 | 0.0003 | -0.079 | -0.0227 | 0.0032 | -0.0033 | -0.0115 | 0.031 | 0.0516 | 0.0435 | -0.0265 | 0.0004 |
